{"source": "patent US9765300B2", "about": "“Hepatic cell lines and stem-like cells, methods of making and using the same” (priority 2014, dated 2017)", "key": {"HEPARG® cells": {"system": "HEPARG® cells", "test": "Comparative study of epigenetic modulators for HEPARG reprogramming to Hepa-SC (toxicity in culture)", "format": "cell-based, human", "settings": "even at low concentration, in our culture conditions", "from_the_text": "• Step 1: Culturing the parental cells in a culture medium that has been modified in order to eliminate all factors supporting differentiation processes during a 2-passage culture period; • Step 2: Inducing mechanical stress such as shape constraint, onto the cells in order to generate a reprogramming signal toward stemness that should be associated with occurrence of a mechano-transduction signaling in all the cells in a synchronized manner, resulting in expression of a “stem cell signature” at the genome level; • Step 3: Inducing the stability of this stem cell fate by epigenetic mechanism, for instance by exposing the cells to methylation/acetylation modulators such as HDAC molecules. Epigenetic modifications refer to mitotically heritable changes in gene expression that are not coded in the DNA sequence itself (Levenson J M, Sweatt J D., 2005). The chosen epigenetic molecule should neither alter cell proliferation activity nor provoke toxicity effects and/or apoptotic induction. 5-azacytidine inhibits DNA methylation. It has been preferentially chosen for HEPARG® reprogramming to Hepa-SC stem-like cells after comparative study with Bix 01294, a small molecule known to inhibit the histone H3 methylation. […]"}, "Hepa-SC cells": {"system": "Hepa-SC cells", "settings": "10 μM; cited from earlier work"}, "Hepa-RP": {"system": "Hepa-RP", "test": "Cholestatic drug screening: alterations of bile saccular canaliculi in Hepa-RP", "format": "cell-based, human", "settings": "Hepa-RP at passage 29 (10 passages with a corticoid-free medium)"}}, "data": [{"compound": "COc1cc2nc(N3CCCN(C)CC3)nc(NC3CCN(Cc4ccccc4)CC3)c2cc1OC", "note": "[Bix 01294]", "values": [{"measurement": "toxicity compared with 5-azacytidine", "setting": "HEPARG® cells", "value": "much more toxic"}]}, {"compound": "Nc1ncn([C@H]2C[C@H](O)[C@@H](CO)O2)c(=O)n1", "note": "[5-aza-2′-deoxycytidine]", "values": [{"measurement": "inhibition of cell proliferation", "setting": "Hepa-SC cells", "value": "does not inhibit cell proliferation"}, {"measurement": "visible cell toxicity", "setting": "Hepa-SC cells", "value": "does not induce visible cell toxicity"}]}, {"compound": "C[S+](C)[O-]", "note": "[DMSO]", "values": [{"measurement": "induction of three distinct CYP450 enzymes activity", "setting": "CYP450 enzymes", "value": "induced"}]}, {"compound": "O=S(=O)(c1cccc2cnccc12)N1CCCNCC1", "note": "[Fasudil]", "values": [{"measurement": "cholestatic effect on the bile saccular canaliculi (alteration)", "setting": "Hepa-RP", "value": "dilatation"}]}, {"compound": "CN(C)CCCN1c2ccccc2Sc2ccc(Cl)cc21", "note": "[Chlorpromazine]", "values": [{"measurement": "cholestatic effect on the bile saccular canaliculi (alteration)", "setting": "Hepa-RP", "value": "constriction"}]}]}
